# Reference: patent US20250206778A1, “PEPTIDE HAVING ANTIDIABETIC ACTIVITY, PEPTIDE COMPLEX, AND USE THEREOF” (CAREGEN CO., LTD., priority 2022, published 2025)
# Assays:
# Type in all cases: cell-based
# phospho-IRS (Ser302) = test: Western blot of insulin signals in 3T3-L1 adipocytes (peptide of SEQ ID NO: 2); details: rhTNF-α 2 nM, 2, 20 μg/ml, FIGS. 15a, 15b
# Protocol: (§1) When 3T3-L1 preadipocytes reached 80% confluence, they were seeded in a 6-well plate at 5×10^5 cells/well and used for the experiment. Two days after reaching confluence, the culture medium was replaced with a differentiation induction medium [DMEM medium containing 10% FBS, 1 μg/ml insulin, 0.5 mM isobutyl methyl xanthine (IBMX) (Sigma, USA), and 1 μM dexamethasone (Sigma, USA)], and differentiation into adipocytes was induced. Two days after induction, preadipocytes were cultured for two days in a medium containing 10% FBS and 10 μg/mL insulin, and then the medium was replaced with a medium containing 10% FBS every two days until preadipocytes differentiated into adipocytes. When differentiation was completed, the medium was replaced with a serum-free medium, and cells were cultured for four hours to induce starvation. To the cells, each of rhTNF-α (2 nM), insulin (1 μg/ml), and the peptide of SEQ ID NO: 2 of Preparation Example 1 (2, 20 μg/ml) was added and the cells were cultured for one hour. The cells were cultured for 30 minutes, the cells of each treatment group were lysed by adding a lysis buffer, and then centrifuged at 4° C. and 12,000 rpm for 30 minutes. The obtained proteins were quantified using a BCA kit. Proteins were subjected to sodium dodecyl sulfate-polyacrylamide gel electrophoresis (SDS-PAGE) and electrotransferred to a membrane. The protein-attached membrane was blocked with 5% skim milk treatment, and then the primary antibody was reacted overnight at 4° C. The membrane was washed with PBS-T, the secondary antibody was reacted at room temperature for one hour, the membrane was washed again with PBS-T, and then visualization was carried out by using Gel Doc (Bio-Rad, Hercules, CA, USA) with a western detection reagent (Elpis Biotech, Daejeon, Korea). The antibodies used in the experiment are as follows: anti-phospho-IRS (Ser302) antibody (Cell signaling technology (CST), USA), anti-phospho-IRS (Tyr632) antibody (Cell signaling technology (CST), USA), anti-phospho-AKT antibody (Cell signaling technology (CST), USA), anti-phospho-AMPK antibody (Cell signaling technology (CST), USA), and anti-α-tubulin antibody (Santa Cruz Biotechnology, USA). […] In addition, it was confirmed that when the peptide of the present invention was treated, the phosphorylation of AMPK, an insulin sensitivity-increasing signaling protein, increased. Meanwhile, it was confirmed that phosphorylation of Ser302 of an insulin receptor substrate (IRS) decreased under an insulin resistance-inducing environment by the treatment of the present peptide, and thus insulin resistance was inhibited.
# phospho-IRS (Tyr632) = test: as above; details: 2, 20 μg/ml, FIGS. 15a, 15b
# Protocol: as §1
# phospho-AMPK = test: as above; details: 2, 20 μg/ml, FIGS. 15a, 15b
# Protocol: as §1
# phospho-AKT = test: as above; details: 2, 20 μg/ml, FIGS. 15a, 15b
# Protocol: as §1
# perilipin (PLIN) = test: Western blot of lipolytic enzyme proteins in 3T3-L1 adipocytes; details: 2, 20 μg/ml, 1 h, FIGS. 13a, 13b
# Protocol: (§2) Whether the peptide of SEQ ID NO: 2 prepared in Preparation Example 1 promotes the expressions of lipolytic enzyme proteins in adipocytes was tested through protein expression analysis (western blot analysis).
# (§3) When 3T3-L1 preadipocytes reached 80% confluence, they were seeded in a 6-well plate at 5×10^5 cells/well and used for the experiment. Two days after reaching confluence, the culture medium was replaced with a differentiation induction medium [DMEM medium containing 10% FBS, 1 μg/ml insulin, 0.5 mM isobutyl methyl xanthine (IBMX) (Sigma, USA), and 1 μM dexamethasone (Sigma, USA)], and differentiation into adipocytes was induced. Two days after induction, preadipocytes were cultured for two days in a medium containing 10% FBS and 10 μg/mL insulin, and then the medium was replaced with a medium containing 10% FBS every two days until preadipocytes differentiated into adipocytes. When differentiation was completed, the medium was replaced with a serum-free medium, and cells were cultured for four hours to induce starvation. Cells were divided into an untreated group (negative control), the peptide of Preparation Example 1 (2, 20 μg/ml)-treatment group, and the TNFα (20 nM)-treatment group (positive control), and then treated with the substances at predetermined concentrations and cultured for one hour. Then, the cells in each treatment group were lysed by adding a lysis buffer. After lysis, proteins obtained by centrifugation at 4° C. and 12,000 rpm for 30 minutes were quantified using a BCA kit. Proteins were subjected to sodium dodecyl sulfate-polyacrylamide gel electrophoresis (SDS-PAGE) and electrotransferred to a membrane. The protein-attached membrane was blocked with 5% skim milk treatment, and then the primary antibody was reacted overnight at 4° C. The membrane was washed with PBS-T, the secondary antibody was reacted at room temperature for one hour, the membrane was washed again with PBS-T, and then visualization was carried out by using Gel Doc (Bio-Rad, Hercules, CA, USA) with a western detection reagent (Elpis Biotech, Daejeon, Korea). […]
# [1] = test system: adipose triglyceride lipase (ATGL); test: as above; details: 2, 20 μg/ml, 1 h, FIGS. 13a, 13b
# Protocol: as §2, §3
# [2] = test system: phosphorylated hormone-sensitive lipase (pHSL); test: as above; details: 2, 20 μg/ml, 1 h, FIGS. 13a, 13b
# Protocol: as §2, §3
# 3T3-L1 adipocytes = test: Glycerol release assay (lipolysis) in 3T3-L1 adipocytes; details: 2, 20 μg/ml, 48 h, FIG. 14
# Protocol: The release amount of glycerol, a lipolysis product, was analyzed to determine whether the peptide of SEQ ID NO: 2 prepared in Preparation Example 1 promotes lipolysis in adipocytes.
# When 3T3-L1 preadipocytes reached 80% confluence, they were seeded in a 6-well plate at 5×10^5 cells/well and used for the experiment. Two days after reaching confluence, the culture medium was replaced with a differentiation induction medium [DMEM medium containing 10% FBS, 1 μg/ml insulin, 0.5 mM isobutyl methyl xanthine (IBMX) (Sigma, USA), and 1 μM dexamethasone (Sigma, USA)], and differentiation into adipocytes was induced. Two days after induction, preadipocytes were cultured for two days in a medium containing 10% FBS and 10 μg/mL insulin, and then the medium was replaced with a medium containing 10% FBS every two days until preadipocytes differentiated into adipocytes. When differentiation was completed, the medium was replaced with a serum-free medium, and cells were cultured for four hours to induce starvation. Cells were divided into an untreated group (negative control), the peptide of SEQ ID NO: 2 of Preparation Example 1 (2, 20 μg/ml)-treatment group, and the TNF-α (20 nM)-treatment group (positive control), and then treated with the substances at predetermined concentrations and cultured for 48 hours. Then, the supernatants were obtained. […]
sequence,measurement,setting,value
KGSATGWMA [peptide of SEQ ID NO: 2],phosphorylation of Ser302 of insulin receptor substrate (IRS) under an insulin resistance-inducing environment,phospho-IRS (Ser302),decreased
same,phosphorylation of Tyr632 of insulin receptor substrate (IRS),phospho-IRS (Tyr632),promoted
same,phosphorylation of AMPK,phospho-AMPK,increased
same,activation of phosphorylation-AKT,phospho-AKT,promoted
same,expression of perilipin (PLIN),perilipin (PLIN),increased
same,expression of adipose triglyceride lipase (ATGL),[1],increased
same,expression of phosphorylated hormone-sensitive lipase (pHSL),[2],increased
same,"release amount of glycerol, a lipolysis product",3T3-L1 adipocytes,increased in a treated peptide concentration-dependent manner
